Assay results taken from publication PMC3066593, “Liposomal Tumor Targeting in Drug Delivery Utilizing MMP-2- and MMP-9-Binding Ligands” (Journal of Drug Delivery, 2010).
One block for each molecule: values may come before it. Positions of bridges follow the written chain, without caps; N, C: chain ends. Residues, ends and D or L forms follow the SMILES beside them.

Columns and labels:
[1] = Hepatic accumulation of 125I-labelled peptides in normal mice; assay type: in vivo
Protocol: Radiolabeling of peptides and all liposomal formulations with iodine-125 (^125I) was performed using the IODOGEN (Pierce, Rockford, IL). The CTT2-PEG3400-DSPE peptide was labeled with ^125I using iodogen as a catalyst. 5 MBq of Na125I (Amersham, Buckinghamshire, England) in 0.5 ml PBS was added to a tube containing 10 μg dried iodogen and 100 μg CTT2-PEG3400-DSPE peptide construct. The mixture was incubated for 20 min at room temperature. The ^125I-bound particle fractions were purified by elution from PD-10 columns. The activity of the peptide was determined in a gamma counter (Cobra II, Packard Instruments).
Following single i.v. tracer doses of purified ^125I-CTT1-peptide (∼40 μg/mouse), ^125I-CTT2-peptide (∼40 μg/mouse), or CTT2-micelles (200 μg/mouse; 200 kBq), the percentage of the injected dose per gram of tissue (%ID/g) values, corrected for radioactive decay to the time of injection, were measured in tumor and major tissues/organs (heart, liver, kidney, lung, muscle, brain, spleen, and tumor) by sacrificing groups of normal mice or mice bearing serous ovarian hindleg xenografts (OV-90) at specified time points.

[2] = Mouse body weight during efficacy study; assay type: in vivo, NMRI nude mice; conditions: at day 9; 9 mg/kg doxorubicin equivalents at day 0, 3 and 6; mean of 9 mice; weights returned to initial levels one week later
Protocol: (§1) Therapeutic efficacy studies were conducted in subcutaneous A2780 xenografts using doxorubicin, administered as either CTT2-SL liposomes or Caelyx. Commercially available nonliposomal (“free”) drug (i.e., doxorubicin) and saline dilution buffer were used as treatment controls. A2780 ovarian cancer cells (5×10^6 in 100 μl PBS) were injected subcutaneously into the posterior flanks of NMRI nude mice (n = 40). Mice received i.v. bolus injections of CTT2-SL liposome, Caelyx, doxorubicin, and buffer. CTT2-SL liposomes were injected when tumor volumes reached 65 mm^3, while administration of Caelyx and doxorubicin to different xenograft mice was offset in time from CTT2-SL liposomes by 3 and 6 days, respectively. Doxorubicin, CTT2-SL liposomes, and Caelyx were injected at doses of 9 mg/kg each. Mouse body weights were monitored throughout the study period.

A2780 xenografts = assay: Therapeutic efficacy (survival) in subcutaneous A2780 xenografts; assay type: in vivo, NMRI nude mice; conditions: 9 mg/kg i.v.
Protocol: as §1

Liver accumulation of peptide per gram of tissue relative to muscle ([1]; nontumor-bearing normal mice, n = 5, single i.v. tracer dose ~40 μg/mouse, 125I label, compared between CTT1- and CTT2-peptide (Figure 4)): greater liver accumulation
SMILES: CC(C)C[C@@H]1NC(=O)[C@H]([C@@H](C)O)NC(=O)[C@H](Cc2ccccc2)NC(=O)CNC(=O)[C@H](Cc2c[nH]c3ccccc23)NC(=O)[C@H](Cc2c[nH]cn2)NC(=O)[C@H]([C@@H](C)O)NC(=O)[C@H]([C@@H](C)O)NC(=O)[C@@H](N)CSSC[C@@H](C(=O)O)NC1=O [CTT1-peptide] (H-CTTHWGFTLC-OH; disulfide 1-10)

Hepatic clearance ([1]; normal mice, compared with CTT1-peptide): more rapid hepatic clearance
SMILES: CC(C)C[C@@H]1NC(=O)[C@H]([C@@H](C)O)NC(=O)[C@H](Cc2ccccc2)NC(=O)CNC(=O)[C@H](Cc2c[nH]c3ccccc23)NC(=O)[C@H](Cc2c[nH]cn2)NC(=O)[C@H]([C@@H](C)O)NC(=O)[C@H]([C@@H](C)O)NC(=O)[C@@H](NC(=O)CNC(=O)[C@H](Cc2c[nH]cn2)NC(=O)[C@H](Cc2ccc(O)cc2)NC(=O)[C@H](CC(N)=O)NC(=O)[C@H](CCC(=O)O)NC(=O)[C@H](CCCNC(=N)N)NC(=O)CN)CSSC[C@@H](C(N)=O)NC1=O [CTT2-peptide] (H-GRENYHGCTTHWGFTLC-NH2; disulfide 8-17)

SMILES: COc1cccc2c1C(=O)c1c(O)c3c(c(O)c1C2=O)C[C@@](O)(C(=O)CO)C[C@@H]3O[C@H]1C[C@H](N)[C@H](O)[C@H](C)O1 [Doxorubicin, doxorubicin]
Maximum body weight loss [2]: about 10% | Day at which live mice with tumor size exceeding 1000 mm^3 were sacrificed (A2780 xenografts): 24 days
